From patent US20050277656A1, “Combination comprising docetaxel and a CDK inhibitor” (Cyclacel Limited, priority 2002, published 2005)

Tests used:
[1] = test system: lung cancer xenograft (LXFL H460); assay: human tumour xenograft study, Experiment 2: docetaxel/roscovitine scheduling (LXFL H460); assay type: in vivo, nude mice (NMRI nu/nu); details: for T/C [%] day 28 / T/Copt [%] / dayopt. (day of T/Copt): single therapy: CYC202 300 mg/kg/d po bd days 0-4, 7-11, 14-18, TXT 20 mg/kg iv days 0, 14
[2] = toxicities (lethality, body weight change) in the LXFL H460 xenograft study; assay type: in vivo, nude mice (NMRI nu/nu); details: single therapy: CYC202 300 mg/kg/d po bd days 0-4, 7-11, 14-18, TXT 20 mg/kg iv days 0, 14; for Median BWC % (day 21): one week after last therapy of docetaxel
[3] = test system: MAXF 857 primary breast cancer xenograft; details: taxotere on day 2, roscovitine on days 0-3 and 7-9 after randomization, or the combination of the two treatments
[4] = test system: breast tumor cells (MDA-435); assay: MTT assay, roscovitine exposure followed by docetaxel; details: single agent at 100% of its IC50 (roscovitine 15 ug/ml or Tax. […])

SMILES: CC(=O)O[C@@]12CO[C@@H]1C[C@H](O)[C@@]1(C)C(=O)[C@H](O)C3=C(C)[C@@H](OC(=O)[C@H](O)[C@@H](NC(=O)OC(C)(C)C)c4ccccc4)C[C@@](O)([C@@H](OC(=O)c4ccccc4)[C@H]21)C3(C)C [docetaxel]
- Tumor growth delay in relation to the vehicle treated control ([1]; LXFL H460, combination Schedule 1, or docetaxel in single therapy): 9 days
- T/C [%] day 28 [1]: 27%
- T/Copt [%] [1]: 12.2%
- dayopt. (day of T/Copt) [1]: 10 days
- T/C [%] day 28 ([1]; listed as TXT): 27.3%
- Lethality n (day) [2]: 0/10
- Median BWC % (day 21) [2]: −4.2%
- optimal T/C [3]: 21%
- % Response [4]: 40.7%

SMILES: CC[C@H](CO)Nc1nc(NCc2ccccc2)c2ncn(C(C)C)c2n1 [roscovitine, 6-benzylamino-2-[(R)-1-ethyl-2-hydroxyethylamino]-9-isopropylpurine]
- T/C [%] day 28 [1]: 64%
- T/Copt [%] [1]: 64.3%
- dayopt. (day of T/Copt) [1]: 28 days
- T/C [%] day 28 ([1]; listed as CYC202): 64.3%
- Median BWC % (day 21) [2]: +7.1%
- optimal T/C [3]: 63%
- % Abs [4]: 0%
- % Response [4]: 43.3%
